Legend:
μ-opioid receptor [1] = biological target: T1, μ-opioid receptor (Homo sapiens, UniProt P35372); test: μ-opioid receptor radioligand dose-displacement binding assay ([3H]-diprenorphine); set-up: expressed in transfected cells; host or cells: HEK-293 or CHO; details: HEK-293 or CHO cells; read-out: Ki Opioid Receptor μ
Experimental: Radioligand dose-displacement binding assays for μ-opioid receptors used 0.3 nM [^3H]-diprenorphine (Perkin Elmer, Shelton, Conn.), with […] membrane protein/well in a final volume of 500 μl binding buffer (10 mM MgCl2, 1 mM EDTA, 5% DMSO, 50 mM HEPES, pH 7.4). Reactions were carried out in the absence or presence of increasing concentrations of unlabeled naloxone. All reactions were conducted in 96-deep well polypropylene plates for 2 hr at room temperature. […] The data were analyzed using the one-site competition curve fitting functions in GraphPad PRISM™ v. 3.0 or higher (San Diego, Calif.), or an in-house function for one-site competition curve-fitting.

κ opioid receptor [2] = biological target: T2, κ opioid receptor (Homo sapiens, UniProt P41145); test: biochemical; assay type: binding; set-up: expressed in transfected cells; host or cells: HEK 293 (in-house membrane prep); details: HEK-293 or CHO cells
T2 sequence (P41145 whole entry): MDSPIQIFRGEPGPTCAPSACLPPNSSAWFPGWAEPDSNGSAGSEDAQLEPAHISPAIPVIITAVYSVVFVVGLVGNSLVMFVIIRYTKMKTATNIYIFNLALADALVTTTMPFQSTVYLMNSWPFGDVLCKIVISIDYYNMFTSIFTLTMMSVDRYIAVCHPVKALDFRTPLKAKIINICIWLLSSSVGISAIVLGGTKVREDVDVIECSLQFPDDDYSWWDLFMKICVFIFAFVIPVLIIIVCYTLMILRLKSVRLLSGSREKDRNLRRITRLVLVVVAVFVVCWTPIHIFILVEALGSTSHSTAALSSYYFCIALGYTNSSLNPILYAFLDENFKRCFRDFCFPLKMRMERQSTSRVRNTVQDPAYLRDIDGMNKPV

κ opioid receptor [3] = biological target: T2, κ opioid receptor; test: κ-opioid receptor [35S]GTPγS functional assay, HEK-293 or CHO cells; assay type: biochemical; set-up: expressed in transfected cells; host or cells: U-2 OS (in-house membranes); details: HEK-293 or CHO cells; for EC50: bound in μM, read-out: GTPγS κ EC50; for Emax: relative to U69,593
[4] = biological target: T3, human opioid receptor-like receptor (ORL-1) (Homo sapiens, UniProt P41146); test: ORL-1 receptor radioligand binding assay ([3H]-nociceptin); details: HEK-293 or CHO cells; bound in μM
T3 construct: host or cells: HEK-293
T3 sequence (P41146 whole entry): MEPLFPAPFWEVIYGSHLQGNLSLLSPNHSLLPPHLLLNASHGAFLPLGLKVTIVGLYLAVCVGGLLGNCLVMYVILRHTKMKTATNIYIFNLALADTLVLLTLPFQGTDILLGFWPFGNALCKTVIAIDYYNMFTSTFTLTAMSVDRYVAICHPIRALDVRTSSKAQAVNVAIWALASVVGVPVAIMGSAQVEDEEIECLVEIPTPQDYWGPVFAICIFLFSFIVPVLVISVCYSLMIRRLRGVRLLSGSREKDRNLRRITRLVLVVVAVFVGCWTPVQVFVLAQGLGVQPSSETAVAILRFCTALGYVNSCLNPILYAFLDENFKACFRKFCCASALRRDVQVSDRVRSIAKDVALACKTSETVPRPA
Experimental: Membranes from recombinant HEK-293 cells expressing the human opioid receptor-like receptor (ORL-1) (Perkin Elmer, Shelton, Conn.) are prepared by lysing cells in ice-cold hypotonic buffer (2.5 mM MgCl2, 50 mM HEPES, pH 7.4) (10 ml/10 cm dish) followed by homogenization with a tissue grinder/Teflon pestle. Membranes are collected by centrifugation at 30,000×g for 15 min at 4° C. and pellets resuspended in hypotonic buffer to a final concentration of 1-3 mg/ml. Protein concentrations are determined using the BioRad protein assay reagent with bovine serum albumen as standard. Aliquots of the ORL-1 receptor membranes are stored at −80° C.
Radioligand binding assays (screening and dose-displacement) use 0.1 nM [^3H]-nociceptin (Perkin Elmer, Shelton, Conn.; 87.7 Ci/mmole) with 12 μg membrane protein in a final volume of 500 μl binding buffer (10 mM MgCl2, 1 mM EDTA, 5% DMSO, 50 mM HEPES, pH 7.4). Non-specific binding is determined in the presence of […] unlabeled nociceptin (American Peptide Company). All reactions are performed in 96-deep well polypropylene plates for 1 h at room temperature. […] The data from screening and dose-displacement experiments are analyzed using Microsoft Excel and the curve fitting functions in GraphPad PRISM™, v. 3.0 or higher, respectively, or an in-house function for one-site competition curve-fitting.

κ opioid receptor [5] = biological target: T2, κ opioid receptor; test: κ-opioid receptor [35S]GTPγS functional assay, U-2 OS cells; assay type: biochemical; set-up: expressed in transfected cells; host or cells: U-2 OS (in-house membranes); details: U-2 OS cells; for EC50: bound in μM, read-out: GTPγS κ EC50; for Emax: relative to U69,593, read-out: GTPγS κ Emax
μ-opioid receptor [6] = biological target: T1, μ-opioid receptor; test: μ-opioid receptor [35S]GTPγS functional assay, HEK-293 or CHO cells; details: for Emax: read-out: GTPγS μ Emax
μ-opioid receptor [7] = biological target: T1, μ-opioid receptor; test: μ-opioid receptor [35S]GTPγS functional assay, U-2 OS cells; assay type: biochemical; set-up: expressed in transfected cells; host or cells: U-2 OS; details: U-2 OS cells; for EC50: read-out: GTPγS μ EC50; for Emax: relative to DAMGO, read-out: GTPγS μ Emax

T1 sequence (P35372 whole entry, species assumed): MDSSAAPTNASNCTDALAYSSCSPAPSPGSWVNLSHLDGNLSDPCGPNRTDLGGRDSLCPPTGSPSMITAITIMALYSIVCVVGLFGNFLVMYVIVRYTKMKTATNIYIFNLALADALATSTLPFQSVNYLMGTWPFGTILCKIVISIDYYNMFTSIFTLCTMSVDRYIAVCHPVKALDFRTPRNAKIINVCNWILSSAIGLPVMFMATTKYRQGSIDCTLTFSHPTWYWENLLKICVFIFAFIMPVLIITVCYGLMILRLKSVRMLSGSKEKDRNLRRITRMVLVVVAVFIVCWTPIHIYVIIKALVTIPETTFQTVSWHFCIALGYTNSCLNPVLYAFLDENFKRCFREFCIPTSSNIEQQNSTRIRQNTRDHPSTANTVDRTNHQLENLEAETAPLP

| SMILES | Ki (μ-opioid receptor [1]) [nM] | Ki (κ opioid receptor [2]) [nM] | EC50 (κ opioid receptor [3]) [µM] | Emax (κ opioid receptor [3]) [%] | Ki [4] [µM] | EC50 (κ opioid receptor [5]) [µM] | Emax (κ opioid receptor [5]) [%] | EC50 (μ-opioid receptor [6]) [nM] | Emax (μ-opioid receptor [6]) [%] | EC50 (μ-opioid receptor [7]) [nM] | Emax (μ-opioid receptor [7]) [%] |
| --- | --- | --- | --- | --- | --- | --- | --- | --- | --- | --- | --- |
| CN1CC[C@@]2(C)c3cc(O)ccc3C[C@@H]1[C@@H]2NCCc1ccc(S(N)(=O)=O)cc1 [Compound 92, 4-(2-(((2R,6S,11R)-8-hydroxy-3,6-dimethyl-1,2,3,4,5,6-hexahydro-2,6-methanobenzo[d]azocin-11-yl)amino)ethyl)benzenesulfonamide] | 54.5 ± 17.3 | 163 ± 3.83 | > 20 | 3.5 ± 1.71 | > 20 | > 20 | 1 | 68.9 ± 16 | 100 ± 3.12 | 149 ± 25.5 | 97.3 ± 3.53 |
| CN1CC[C@@]2(C)c3cc(O)ccc3C[C@@H]1[C@H]2NCCc1ccc(S(N)(=O)=O)cc1 [Compound 94, 4-(2-(((2R,6S,11S)-8-hydroxy-3,6-dimethyl-1,2,3,4,5,6-hexahydro-2,6-methanobenzo[d]azocin-11-yl)amino)ethyl)benzenesulfonamide] | 36.8 ± 12.1 | 16.8 ± 2.51 | > 20 | 4.6 ± 0.4 | > 20 | > 20 | 0 | 40.8 ± 2.76 | 85.3 ± 4.98 | 27.4 ± 4.2 | 85.3 ± 5.93 |
| CN1CC[C@]2(C)c3cc(O)ccc3C[C@H]1[C@@H]2NCCc1ccc(S(N)(=O)=O)cc1 [Compound 95, 4-(2-(((2S,6R,11R)-8-hydroxy-3,6-dimethyl-1,2,3,4,5,6-hexahydro-2,6-methanobenzo[d]azocin-11-yl)amino)ethyl)benzenesulfonamide] | 1760 ± 324 | 4600 ± 764 | – | – | > 20 | > 20 | -1 | 2120 ± 204 | 78 ± 3.06 | 1440 ± 44.7 | 79.7 ± 8.41 |
